From paper PMC10525516, “Novel NADPH Oxidase-2 Inhibitors as Potential Anti-Inflammatory and Neuroprotective Agents” (Antioxidants, 2023)
Structures can show the parent of a compound that is named as a salt. Blank lines part the entries; values can stand above or below the compound they belong to.

Assays:
[1] = target: T1, Nox2 (Homo sapiens, UniProt P04839); assay: CBA probe assay of H2O2 production by PMA-activated dHL60 cells; assay type: cell-based; conditions: for Nox2 inhibitory potency (SAR statement): replacement of the indole moiety, data not shown; for IC50: PMA (1 µM)-activated dHL60 cells, 30 min preincubation with inhibitor, read-out: IC50, inhibition of H2O2 production, CBA Assay; for Nox2 inhibitory activity: tested at concentrations of up to 50 µM
T1 construct: endogenous in cells
T1 sequence (P04839 2-570 limits assumed): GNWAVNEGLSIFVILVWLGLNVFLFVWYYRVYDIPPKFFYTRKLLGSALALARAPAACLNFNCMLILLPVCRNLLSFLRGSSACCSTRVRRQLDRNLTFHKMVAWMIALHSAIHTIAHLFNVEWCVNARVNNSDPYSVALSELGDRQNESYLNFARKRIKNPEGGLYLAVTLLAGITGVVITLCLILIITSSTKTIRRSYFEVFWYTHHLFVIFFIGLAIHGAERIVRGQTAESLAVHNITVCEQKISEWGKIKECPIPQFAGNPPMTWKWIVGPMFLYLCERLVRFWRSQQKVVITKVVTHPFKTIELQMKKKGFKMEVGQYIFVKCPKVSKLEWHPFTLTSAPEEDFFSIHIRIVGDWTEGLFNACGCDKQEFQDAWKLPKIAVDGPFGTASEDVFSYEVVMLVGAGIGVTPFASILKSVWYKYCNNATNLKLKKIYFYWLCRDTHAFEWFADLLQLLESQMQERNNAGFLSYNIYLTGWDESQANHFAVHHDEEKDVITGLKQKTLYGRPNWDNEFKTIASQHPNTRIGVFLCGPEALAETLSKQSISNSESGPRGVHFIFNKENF
T1 sequence (P13498 2-195 partner limits assumed): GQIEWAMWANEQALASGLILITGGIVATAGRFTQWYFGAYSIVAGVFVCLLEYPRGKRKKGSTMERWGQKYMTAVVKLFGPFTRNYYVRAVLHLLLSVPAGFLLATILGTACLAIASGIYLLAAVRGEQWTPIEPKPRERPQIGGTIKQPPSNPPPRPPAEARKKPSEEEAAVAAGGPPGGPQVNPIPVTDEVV
Experimental: (§1) Human promyelocytic leukemia HL60 cells (Sigma-Aldrich) were grown in RPMI 1640 medium (Gibco, 11875-093, Billings, MT, USA) supplemented with 10% FBS (Omega Scientific (Tarzana, CA, USA)), 100 units/mL penicillin, and 100 µg/mL streptomycin, and were incubated at 37 °C and 5% carbon dioxide (CO2). For differentiation to neutrophil-like cells, HL60 cells were pelleted and resuspended in fresh media containing 1 µM of all trans-retinoic acid and incubated for four to five days. Nox2 activation was achieved by treating differentiated HL60 (dHL60) cells with 1 µM PMA [24]. Human leukemia monocytic cells, THP-1, were grown in RPMI 1640 medium + GlutaMAX^TM (Gibco, 61870-036) and supplemented with 10% FBS, 10 mM HEPES, and 1 mM sodium pyruvate and incubated at 37 °C in 5% CO2 environment. To induce differentiation into macrophages, THP-1 cells were treated with PMA (100 ng/mL) for 48 h. To test the efficacy of Nox2 inhibitors, treatment was performed with or without the inhibitor, along with PMA [35].
(§2) Plate reader-based analyses of the production of O2^•− and H2O2 by PMA-activated dHL60 cells were performed according to a published protocol with minor modifications. Briefly, for the treatment of dHL60 cells with different concentrations of the compounds, 0.5 mL deep-well 96-well plates were used to dispense and store aliquots of their 10 mM DMSO solutions. Using a Multidrop™ PicoIT dispenser (Thermo Scientific), different volumes of the solutions of candidate Nox inhibitors (10 or 50 mM in DMSO) were injected into the bottom of 0.5 mL V-bottom 96-well plates; then, they were sealed with aluminum foil (VWR, Batavia, IL, USA) using a semiautomatic thermal sealer (BT LabSystems, St. Louis, MO, USA) and stored at −20 °C to reduce freeze-thawing the solutions. The plates with inhibitors were allowed to come to room temperature before the addition of the cell suspensions. dHL60 cells were pelleted and resuspended in HBSS (Invitrogen, Waltham, MA, USA) supplemented with 25 mM HEPES (pH 7.4) and 100 µM DTPA to a cell density of 2 × 10^5 cells/mL. dHL60 cells were added to the V-bottom plates at a volume of 210 µL/well. Next, cells were incubated with inhibitors for 30 min at 37 °C in a CO2-free incubator under ambient oxygen and then transferred to black, clear-bottom 96-well plates (200 µL/well) after incubation. Freshly prepared PMA plus probe solutions in HBSS (5× concentrated, 50 µL/well) included PMA (5 µM) with CBA (500 µM) or with Amplex Red (250 µM) plus HRP (0.5 U/mL) for H2O2 detection, or with HE (50 µM) plus DNA (0.5 mg/mL) for O2^•− detection. Once probes + PMA were added, plates were sealed with sealing film and immediately placed in the pre-warmed plate readers (37 °C). Fluorescence intensities were monitored kinetically from the bottom of the plates every 1.3 min for a period of 2 h using Beckman Coulter (Brea, CA, USA) DTX880 and BMG Labtech (Ortenberg, Germany) FLUOstar Omega plate readers. DMSO alone and DPI (10 µM) were used as negative and positive controls, respectively. […] The IC50 values were determined using at least five independent measurements, each consisting of technical quadruplicates per concentration.

[2] = target: T1, Nox2; assay: Amplex Red/HRP assay of H2O2 production by PMA-activated dHL60 cells; assay type: cell-based; conditions: for IC50: PMA (1 µM)-activated dHL60 cells, 30 min preincubation, read-out: IC50, inhibition of H2O2 production, Amplex Red Assay
Experimental: as §1, §2

[3] = test system: dHL60 cells; assay: Cell Titer Glo 2.0 cytotoxicity (ATP) assay in PMA-stimulated dHL60 cells; assay type: cell-based, human; conditions: for IC50: Homo sapiens, Cell Titer Glo 2.0, PMA-stimulated dHL60 cells, 2.5 h with inhibitor, unit not printed in Table 3, taken from text, read-out: IC50, Viability Assay
Experimental: The cytotoxicity of the inhibitors was tested by measuring the amount of ATP in the wells containing PMA-stimulated dHL60 cells and the candidate inhibitors. Cells were prepared as described for the plate reader-based measurements for H2O2, except that the cells were maintained with the inhibitors in a CO2-free incubator at 37 °C for 2.5 h to mirror the conditions during the fluorescence-based monitoring of H2O2 described above. After incubation, cells (100 µL/well) were transferred to white 96-well plates (Greiner, Kremsmünster, Austria), and the total cellular ATP amount was determined using the Cell Titer Glo 2.0 (Promega) cytotoxicity assay (100 µL/well) by measuring the luminescence intensity using a Beckman Coulter DTX880 plate reader.

[4] = test system: Nox2; set-up: method as in PMID 22726689; conditions: library of >200,000 compounds; cited from earlier work
[5] = test system: THP-1 cells; assay: qRT-PCR mRNA expression of Nox2 subunits and inflammatory mediators in PMA-treated THP-1 cells; assay type: cell-based, human; conditions: 3 µM, 48 h with PMA 100 ng/mL
Experimental: as §1
mRNA expression analysis was performed as previously described. Briefly, THP-1 cells were treated with PMA (100 ng/mL) with or without the Nox2 inhibitor TG15-132 (3.0 µM) for 48 h. RNA extraction was done using the Quick-RNA miniprep kit (cat. no. R1055, Zymo Research, Irvine, CA, USA) and followed by cDNA synthesis using the qScript cDNA superMix kit (cat. no. 84035, Quantabio, Beverly, MA, USA). Quantitative real-time PCR was performed using specific primers designed to amplify target genes (Table 2). Data obtained were analyzed and converted into fold changes in expression with respect to vehicle-treated cells.

[6] = Short-term (seven day) in vivo toxicity in mice; set-up: species or system C57BL/6 mice; conditions: 20 mg/kg, seven days, Figure 9B
Experimental: All animal experiments were performed according to protocols and guidelines approved by the Emory University Animal Care and Use Committee. The in vivo toxicity of TG15-132 was assessed using C57BL/6 mice (cat. no. 027, Charles River Laboratories, Wilmington, MA, USA). Animals were injected daily (i.p.) with saline, vehicle (DMSO 10%, PEG400 30%, water 60%), or 20 mg/kg of TG15-132 in vehicle for seven days, with body weight recorded each day. At the end of treatment, organs were harvested to study organ weight loss, and blood was collected from each mouse via cardiac puncture, and serum was isolated. Serum was analyzed for kidney function using blood urea nitrogen and creatinine, liver function using alanine amino transferase, and tissue damage using lactate dehydrogenase.

[7] = In vivo pharmacokinetics / brain penetration, species not specified (rodent models); conditions: brain; species and dose not stated; data not shown; read-out: brain-to-plasma ratio
Text: Rapid metabolism and the inability to cross the BBB represent major obstacles in the application of bioactive agents in neurodegenerative diseases. Based on the premise that Nox2 plays a major role in oxidative damage and exacerbates neurodegenerative diseases, we envision applications of brain-permeable Nox2 inhibitors in mechanistic studies in vivo, and, long-term, in the development of novel therapeutic strategies. Therefore, we performed in vivo pharmacokinetics studies to determine the time profile of plasma concentration and accumulation of TG15-132 in the brain tissue of Sprague Dawley rats and C57BL6 mice.

- Nox2 inhibitory potency (SAR statement) [1]: eliminated potency
SMILES: CN(C)CCCSc1nc2ccc(F)cc2c(=O)n1CCCN(C)C [TG17-55]

- IC50 [1]: 7 ± 2.8 µM
- IC50 [2]: 9.2 ± 0.4 µM
SMILES: CC(C)N1CCN(CCCn2c(SCCc3c[nH]c4ccccc34)nc3ccc(F)cc3c2=O)CC1 [TG17-57]
- IC50 [3]: 20.7 ± 5 µM

SMILES: O=c1c2ccccc2[se]n1-c1ccccc1 [ebselen]
- Nox2 inhibition in cell-free HTS [4]: modest Nox2 inhibitors

- IC50 [1]: 23.6 ± 18.1 µM
- fold less potency than TG17-57 in the CBA assay ([1]; relative to TG17-57): about 3 fold
- IC50 [2]: 67.8 ± 2.6 µM
- fold less potency than TG17-57 in the Amplex Red assay ([2]; relative to TG17-57): about 7 fold
SMILES: CC(C)N1CCN(C(=O)CCCn2c(SCCc3c[nH]c4ccccc34)nc3ccc(F)cc3c2=O)CC1 [TG15-293]
- IC50 [3]: 38.3 ± 7.5 µM

SMILES: c1ccc2c(c1)[I+]c1ccccc1-2 [DPI, Diphenyleneiodonium chloride, reference compound]
- inhibitory activity (positive control) ([1]; 10 µM): consistently showed inhibitory activity
- cytotoxic effects ([3]; 10 µM, Cell Titer Glo 2.0): did not show any cytotoxic effects

SMILES: CN(C)CCCn1c(SCCc2ccccn2)nc2ccc(Cl)cc2c1=O [TG15-124]
- Nox2 inhibitory potency (SAR statement) [1]: significant loss in Nox2 inhibitory potency

SMILES: CC(C)n1cc(-c2ccc3c(c2)N(C)CC3)c2c(NS(=O)(=O)c3ccn(C)n3)ccnc21 [GSK 2795039, reference compound]
- expression of TNF compared with PMA-treated cells (Figure 7B) [5]: increased
- mRNA expression vs PMA-treated cells, additional experiment (Figure 7B) [5]: did not reduce the expression of Nox2 components and inflammatory mediators

- Nox2 inhibitory activity [1]: did not show Nox2 inhibitory activity
SMILES: COc1cc(C(C)=O)ccc1O [apocynin, reference compound]

SMILES: COc1cc(C(C)=O)cc(-c2cc(C(C)=O)cc(OC)c2O)c1O [diapocynin, reference compound]
- Nox2 inhibitory activity [1]: did not show Nox2 inhibitory activity

SMILES: CN(C)CCCn1c(SCCc2c[nH]c3ccccc23)nc2ccc(F)cc2c1=O [TG15-132•HCl]
- liver or kidney function, tissue damage (serum BUN, CREAT, ALT, LDH) [6]: did not lead to a negative effect

- IC50 [1]: 3.1 ± 1.4 µM
- IC50 [2]: 4.9 ± 2.3 µM
- Kp [7]: > 23
SMILES: CN(C)CCCn1c(SCCc2c[nH]c3ccccc23)nc2ccc(Cl)cc2c1=O [TG15-139]
- IC50 [3]: 14.1 ± 1.7 µM
- cell viability at concentrations showing Nox2 inhibitory potency ([3]; dHL60 cells, Figure 3D,E): no decrease in cell viability

SMILES: CN(C)CCCn1c(SCCc2ccccn2)nc2ccc(F)cc2c1=O [TG15-131]
- Nox2 inhibitory potency (SAR statement) [1]: significant loss in Nox2 inhibitory potency

- IC50 [1]: 5.3 ± 0.6 µM
- IC50 [2]: 7.8 ± 4 µM
SMILES: CCN1CCN(CCCn2c(SCCc3c[nH]c4ccccc34)nc3ccc(F)cc3c2=O)CC1 [TG17-56]
- IC50 [3]: 16.7 ± 2.5 µM
